# Assays:
# Type in all cases: in vivo
# [1] = system: Stagonospora nodorum (also known as Septoria nodorum); assay: Test B: wheat seedlings sprayed with test suspension, inoculated with Stagonospora nodorum (wheat glume blotch), visual disease rating
# Description: (§1) General protocol for preparing test suspensions for Tests A-E: the test compounds were first dissolved in acetone in an amount equal to 3% of the final volume and then suspended at the desired concentration (in ppm) in acetone and purified water (50/50 mix by volume) containing 250 ppm of the surfactant Trem® 014 (polyhydric alcohol esters). The resulting test suspensions were then used in Tests A-E. Samples were applied to plants at either a 10 ppm (**), 40 ppm, 50 ppm (*) or 200 ppm (#) test solution to the point of run-off on the test plants with the equivalent of a rate of 40 g ai/ha, 160 g ai/ha, 200 g ai/ha, or 800 g ai/ha, respectively.
# The test suspension was sprayed to the point of run-off on wheat seedlings. The following day the seedlings were inoculated with a spore suspension of Stagonospora nodorum (also known as Septoria nodorum; the causal agent of wheat glume blotch) and incubated in a saturated atmosphere at 20° C. for 48 h, and then moved to a growth chamber at 20° C. for 6 days, after which time visual disease ratings were made.
# (§2) Results for Tests A-E are given in Table A. In the Table, a rating of 100 indicates 100% disease control and a rating of 0 indicates no disease control (relative to the controls). A dash (-) indicates no test results.
# [2] = system: Erysiphe graminis f. sp. tritici; assay: Test E: wheat seedlings sprayed with test suspension, inoculated with Erysiphe graminis f. sp. tritici (wheat powdery mildew), visual disease rating
# Description: as §1
# The test suspension was sprayed to the point of run-off on wheat seedlings. The following day the seedlings were inoculated with a spore dust of Erysiphe graminis f. sp. tritici, (the causal agent of wheat powdery mildew) and incubated in a growth chamber at 20° C. for 7 or 8 days, after which time visual disease ratings were made.
# as §2
# Septoria tritici = assay: Test C: wheat seedlings sprayed with test suspension, inoculated with Septoria tritici (wheat leaf blotch), visual disease rating
# Description: as §1
# The test suspension was sprayed to the point of run-off on wheat seedlings. The following day the seedlings were inoculated with a spore suspension of Septoria tritici (the causal agent of wheat leaf blotch) and incubated in a saturated atmosphere at 24° C. for 48 h, and then moved to a growth chamber at 20° C. for 21 days, after which time visual disease ratings were made.
# as §2
# [3] = system: Puccinia recondite f. sp. tritici; assay: Test D: wheat seedlings sprayed with test suspension, inoculated with Puccinia recondite f. sp. tritici (wheat leaf rust), visual disease rating
# Description: as §1
# The test suspension was sprayed to the point of run-off on wheat seedlings. The following day the seedlings were inoculated with a spore suspension of Puccinia recondite f. sp. tritici; (the causal agent of wheat leaf rust) and incubated in a saturated atmosphere at 20° C. for 24 h, and then moved to a growth chamber at 20° C. for 6 days, after which time visual disease ratings were made.
# as §2
# [4] = Cmpd. No. marked '*' (other test rate; meaning of mark not shown)
# [5] = Cmpd. No. unmarked, 100 = 100% disease control, 0 = no control relative to controls
# [6] = Cmpd. No. marked '**' (other test rate; meaning of mark not shown)
structure (smiles),measurement,setting,value
Cn1nc(C(F)F)c(C(=O)N(Cc2cc(-n3ccc(C(F)(F)F)n3)ccc2Cl)C2CC2)c1F [compound 86],Test B rating (% disease control),[1]; [4],100%
same,Test E rating (% disease control),[2]; [4],95%
same,Test C rating (% disease control),Septoria tritici; [4],99%
same,Test D rating (% disease control),[3]; [4],68%
CC(c1cc(-n2ccc(C(F)(F)F)n2)ccc1Cl)N(C(=O)c1c(C(F)F)nn(C)c1F)C1CC1 (stereo not shown) [compound 135],Test B rating (% disease control),[1]; [4],100%
same,Test E rating (% disease control),[2]; [4],95%
same,Test C rating (% disease control),Septoria tritici; [4],99%
same,Test D rating (% disease control),[3]; [4],80%
CC(c1cc(-n2ccc(C(F)(F)F)n2)cc(C(F)(F)F)c1)N(C(=O)c1cn(C)nc1C(F)F)C1CC1 (stereo not shown) [compound 42],Test B rating (% disease control),[1]; [5],0%
same,Test E rating (% disease control),[2]; [5],0%
same,Test C rating (% disease control),Septoria tritici; [5],39%
same,Test D rating (% disease control),[3]; [5],0%
CC(C)c1cc(-n2ccc(C(F)(F)F)n2)ccc1CN(C(=O)c1c(C(F)F)nn(C)c1F)C1CC1 [compound 121],Test B rating (% disease control),[1]; [5],100%
same,Test E rating (% disease control),[2]; [5],99%
same,Test C rating (% disease control),Septoria tritici; [5],95%
same,Test D rating (% disease control),[3]; [5],100%
Cn1nc(C(F)F)c(C(=O)N(Cc2ccc(-n3ccc(C(F)(F)F)n3)cc2F)C2CC2)c1F [compound 68],Test B rating (% disease control),[1]; [5],100%
same,Test E rating (% disease control),[2]; [5],99%
same,Test C rating (% disease control),Septoria tritici; [5],97%
same,Test D rating (% disease control),[3]; [5],91%
CC(c1cc(-n2ccc(C(F)(F)F)n2)ccc1[N+](=O)[O-])N(C(=O)c1c(C(F)F)nn(C)c1F)C1CC1 (stereo not shown) [compound 134],Test B rating (% disease control),[1]; [4],94%
same,Test E rating (% disease control),[2]; [4],0%
same,Test C rating (% disease control),Septoria tritici; [4],43%
same,Test D rating (% disease control),[3]; [4],68%
COc1ccc(C(C)N(C(=O)c2cn(C)nc2C(F)F)C2CC2)cc1-n1ccc(C(F)(F)F)n1 (stereo not shown) [compound 44],Test B rating (% disease control),[1]; [5],78%
same,Test E rating (% disease control),[2]; [5],0%
same,Test C rating (% disease control),Septoria tritici; [5],87%
same,Test D rating (% disease control),[3]; [5],0%
CC(c1ccc(Cl)c(-n2ccc(C(F)(F)F)n2)c1)N(C(=O)c1cn(C)nc1C(F)F)C1CC1 (stereo not shown) [compound 126],Test B rating (% disease control),[1]; [5],92%
same,Test E rating (% disease control),[2]; [5],48%
same,Test C rating (% disease control),Septoria tritici; [5],92%
same,Test D rating (% disease control),[3]; [5],68%
CC(c1ccc(-n2ccc(C(F)(F)F)n2)cc1Cl)N(C(=O)c1c(C(F)F)nn(C)c1F)C1CC1 (stereo not shown) [compound 72],Test B rating (% disease control),[1]; [5],100%
same,Test E rating (% disease control),[2]; [5],99%
same,Test C rating (% disease control),Septoria tritici; [5],100%
same,Test D rating (% disease control),[3]; [5],99%
CC(c1cc(-n2ccc(C(F)(F)F)n2)ccc1Br)N(C(=O)c1cn(C)nc1C(F)F)C1CC1 (stereo not shown) [compound 128],Test B rating (% disease control),[1]; [5],100%
same,Test E rating (% disease control),[2]; [5],93%
same,Test C rating (% disease control),Septoria tritici; [5],92%
same,Test D rating (% disease control),[3]; [5],0%
Cn1nc(C(F)F)c(C(=O)N(Cc2ccc(-n3cncn3)cc2Cl)C2CC2)c1F [compound 145],Test B rating (% disease control),[1]; [5],95%
same,Test E rating (% disease control),[2]; [5],0%
same,Test C rating (% disease control),Septoria tritici; [5],95%
same,Test D rating (% disease control),[3]; [5],0%
Cn1nc(C(F)F)c(C(=O)N(Cc2ccc(-n3ccc(C(F)(F)F)n3)c(Cl)c2)C2CC2)c1F [compound 99],Test B rating (% disease control),[1]; [6],59%
same,Test E rating (% disease control),[2]; [6],89%
same,Test C rating (% disease control),Septoria tritici; [6],96%
same,Test D rating (% disease control),[3]; [6],97%
CC(c1ccc(C(F)(F)F)c(-n2ccc(C(F)(F)F)n2)c1)N(C(=O)c1c(C(F)F)nn(C)c1F)C1CC1 (stereo not shown) [compound 51],Test B rating (% disease control),[1]; [5],100%
same,Test E rating (% disease control),[2]; [5],84%
same,Test C rating (% disease control),Septoria tritici; [5],88%
same,Test D rating (% disease control),[3]; [5],0%
CC(c1cc(-n2ccc(C(F)(F)F)n2)ccc1OC(F)(F)F)N(C(=O)c1c(C(F)F)nn(C)c1F)C1CC1 (stereo not shown) [compound 133],Test B rating (% disease control),[1]; [4],100%
same,Test E rating (% disease control),[2]; [4],94%
same,Test C rating (% disease control),Septoria tritici; [4],92%
same,Test D rating (% disease control),[3]; [4],68%
Cn1nc(C(F)F)c(C(=O)N(Cc2ccc(-n3ccc(C(F)(F)F)n3)cc2Cl)C2COC2)c1F [Compound 164],Test B rating (% disease control),[1]; [6],0%
same,Test E rating (% disease control),[2]; [6],0%
same,Test C rating (% disease control),Septoria tritici; [6],46%
same,Test D rating (% disease control),[3]; [6],0%
Cc1ccc(-n2ccc(C(F)(F)F)n2)cc1C(C)N(C(=O)c1cn(C)nc1C(F)F)C1CC1 (stereo not shown) [compound 45],Test B rating (% disease control),[1]; [5],100%
same,Test E rating (% disease control),[2]; [5],90%
same,Test C rating (% disease control),Septoria tritici; [5],96%
same,Test D rating (% disease control),[3]; [5],9%
Cn1cc(C(=O)N(Cc2c(Cl)cc(-n3ccc(Br)n3)cc2Cl)C2CC2)c(C(F)F)n1 [compound 40],Test B rating (% disease control),[1]; [5],99%
same,Test E rating (% disease control),[2]; [5],89%
same,Test C rating (% disease control),Septoria tritici; [5],99%
same,Test D rating (% disease control),[3]; [5],99%
Cn1nc(C(F)F)c(C(=O)N(Cc2ccc(-n3ccnn3)cc2Cl)C2CC2)c1F [compound 66],Test B rating (% disease control),[1]; [5],97%
same,Test E rating (% disease control),[2]; [5],0%
same,Test C rating (% disease control),Septoria tritici; [5],94%
same,Test D rating (% disease control),[3]; [5],28%
C#CCOc1cc(-n2ccc(C(F)(F)F)n2)ccc1CN(C(=O)c1c(C(F)F)nn(C)c1F)C1CC1 [compound 62],Test B rating (% disease control),[1]; [5],99%
same,Test E rating (% disease control),[2]; [5],94%
same,Test C rating (% disease control),Septoria tritici; [5],99%
same,Test D rating (% disease control),[3]; [5],99%
Cn1nc(C(F)F)c(C(=O)N(Cc2ccc(-n3cccn3)cc2Cl)C2CC2)c1F [compound 46],Test B rating (% disease control),[1]; [5],100%
same,Test E rating (% disease control),[2]; [5],98%
same,Test C rating (% disease control),Septoria tritici; [5],99%
same,Test D rating (% disease control),[3]; [5],94%
Cc1ccc(-n2ccc(C(F)(F)F)n2)cc1C(C)N(C(=O)c1c(C(F)F)nn(C)c1F)C1CC1 (stereo not shown) [compound 52],Test B rating (% disease control),[1]; [5],100%
same,Test E rating (% disease control),[2]; [5],99%
same,Test C rating (% disease control),Septoria tritici; [5],99%
same,Test D rating (% disease control),[3]; [5],93%
Cn1nc(C(F)F)c(C(=O)N(Cc2ccc(-n3nccn3)cc2Cl)C2CC2)c1F [compound 64],Test B rating (% disease control),[1]; [5],100%
same,Test E rating (% disease control),[2]; [5],97%
same,Test C rating (% disease control),Septoria tritici; [5],98%
same,Test D rating (% disease control),[3]; [5],100%

# From patent publication US10098350B2, “Fungicidal amides” (E. I. DU PONT DE NEMOURS AND COMPANY, priority 2013, dated 2018)
